# Laboratory results as given in patent US20050175555A1, “Polyunsaturated linear aldehydes and their derivatives with anti-radical and anti-tumoral activity” (priority 2002, published 2005).
# System: UV-induced erythema
# Test: UV-induced erythema prevention test
# Format: in vivo
# Details: guinea pig ear, UV lamp 30 sec, 10% suspension topical, approx. 3 hours
# Method: UV-induced erythema was caused by applying a UV lamp (Hanoivna Kramager) to the ear of a guinea pig for 30 sec; the lamp transmitted rays with a wavelength of […], which consequently included UV-B, UV-C and UV-A rays, through a special filter.
# Excipients only or a suspension containing 5 or 10% 2,4,6,8,10,12,14-hexadecaheptaenol palmitate were spread on the ear of the test animals, and the temperature increase resulting from the UV-induced erythema was measured with a thermoelectric thermometer after approx. 3 hours in the control animals and the test animals.
structure (smiles),measurement,value
"CC=CC=CC=CC=CC=CC=CC=CCOC(=O)CCCCCCCCCCCCCCC [2,4,6,8,10,12,14-hexadecaheptaenyl palmitate]",appearance of heat and erythema,inhibited
